Assay results: PubChem BioAssay (NCI)
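Following 48 hours of exposure in 96-well plates, responses at five concentrations were used to interpolate endpoints linearly. Abbreviation: GI50, concentration required for 50% inhibition of growth. At the TGI there is no net growth.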

How the values were obtained:
Assay in all cases: NCI tumour cell line growth inhibition, 48 h
LOX IMVI melanoma = test system: LOX IMVI melanoma
HOP-92 NSCLC = test system: HOP-92 NSCLC
HCT-15 colon = test system: HCT-15 colon
DU-145 prostate = test system: DU-145 prostate
ACHN renal = test system: ACHN renal
NCI-H522 lung = test system: NCI-H522 lung
M14 melanoma = test system: M14 melanoma
SF-268 CNS = test system: SF-268 CNS
T-47D breast = test system: T-47D breast
NCI/ADR-RES ovarian = test system: NCI/ADR-RES ovarian
U251 CNS = test system: U251 CNS
EKVX NSCLC = test system: EKVX NSCLC
MDA-MB-435 = test system: MDA-MB-435
RXF 393 renal = test system: RXF 393 renal
SK-MEL-2 melanoma = test system: SK-MEL-2 melanoma
SW-620 colon = test system: SW-620 colon
BT-549 breast = test system: BT-549 breast
SK-MEL-5 melanoma = test system: SK-MEL-5 melanoma
UO-31 renal = test system: UO-31 renal
RPMI-8226 leukemia = test system: RPMI-8226 leukemia
SNB-19 CNS = test system: SNB-19 CNS
UACC-62 melanoma = test system: UACC-62 melanoma
COLO 205 colon = test system: COLO 205 colon
MDA-MB-231 breast = test system: MDA-MB-231 breast
SK-MEL-28 melanoma = test system: SK-MEL-28 melanoma
CCRF-CEM leukemia = test system: CCRF-CEM leukemia
SK-OV-3 ovarian = test system: SK-OV-3 ovarian
SF-295 CNS = test system: SF-295 CNS
NCI-H460 lung = test system: NCI-H460 lung
IGROV1 ovarian = test system: IGROV1 ovarian
MOLT-4 leukemia = test system: MOLT-4 leukemia
OVCAR-8 ovarian = test system: OVCAR-8 ovarian
K-562 leukemia = test system: K-562 leukemia
HS 578T breast = test system: HS 578T breast
NCI-H226 lung = test system: NCI-H226 lung
OVCAR-5 ovarian = test system: OVCAR-5 ovarian
786-0 renal = test system: 786-0 renal
TK-10 renal = test system: TK-10 renal
UACC-257 melanoma = test system: UACC-257 melanoma
PC-3 prostate = test system: PC-3 prostate
A498 renal = test system: A498 renal
OVCAR-4 ovarian = test system: OVCAR-4 ovarian
HOP-62 NSCLC = test system: HOP-62 NSCLC
A549 NSCLC = test system: A549 NSCLC
KM12 colon = test system: KM12 colon
CAKI-1 renal = test system: CAKI-1 renal
SN12C renal = test system: SN12C renal
HCC-2998 colon = test system: HCC-2998 colon
SF-539 CNS = test system: SF-539 CNS
HCT-116 colon = test system: HCT-116 colon
NCI-H23 lung = test system: NCI-H23 lung
HT29 colon = test system: HT29 colon
MCF7 breast = test system: MCF7 breast
SNB-75 CNS = test system: SNB-75 CNS
OVCAR-3 ovarian = test system: OVCAR-3 ovarian

Structure (SMILES): C=C(C(=O)OC)[C@@H]1C[C@@H](O)[C@]2(C)CC/C=C(\C)CCC[C@H](C)[C@H](O)C1O2
- GI50 (LOX IMVI melanoma): 32.8 µM
- TGI (LOX IMVI melanoma): > 100 µM
- GI50 (HOP-92 NSCLC): 3.71 µM
- TGI (HOP-92 NSCLC): 45.4 µM
- GI50 (HCT-15 colon): 59 µM
- TGI (HCT-15 colon): > 100 µM
- GI50 (DU-145 prostate): 45.5 µM
- TGI (DU-145 prostate): > 100 µM
- GI50 (ACHN renal): 57.5 µM
- TGI (ACHN renal): > 100 µM
- GI50 (NCI-H522 lung): 26.1 µM
- TGI (NCI-H522 lung): > 100 µM
- GI50 (M14 melanoma): 44 µM
- TGI (M14 melanoma): > 100 µM
- GI50 (SF-268 CNS): 65 µM
- TGI (SF-268 CNS): > 100 µM
- GI50 (T-47D breast): 52.8 µM
- TGI (T-47D breast): > 100 µM
- GI50 (NCI/ADR-RES ovarian): 83.7 µM
- TGI (NCI/ADR-RES ovarian): > 100 µM
- GI50 (U251 CNS): 51.4 µM
- TGI (U251 CNS): > 100 µM
- GI50 (EKVX NSCLC): 55.9 µM
- TGI (EKVX NSCLC): > 100 µM
- GI50 (MDA-MB-435): 37.8 µM
- TGI (MDA-MB-435): > 100 µM
- GI50 (RXF 393 renal): 53.3 µM
- TGI (RXF 393 renal): > 100 µM
- GI50 (SK-MEL-2 melanoma): 48.5 µM
- TGI (SK-MEL-2 melanoma): > 100 µM
- GI50 (SW-620 colon): 42.2 µM
- TGI (SW-620 colon): > 100 µM
- GI50 (BT-549 breast): 29.5 µM
- TGI (BT-549 breast): 79.1 µM
- GI50 (SK-MEL-5 melanoma): 26.3 µM
- TGI (SK-MEL-5 melanoma): 79.5 µM
- GI50 (UO-31 renal): 52.8 µM
- TGI (UO-31 renal): > 100 µM
- GI50 (RPMI-8226 leukemia): 27.6 µM
- TGI (RPMI-8226 leukemia): 59 µM
- GI50 (SNB-19 CNS): 79.3 µM
- TGI (SNB-19 CNS): > 100 µM
- GI50 (UACC-62 melanoma): 40.5 µM
- TGI (UACC-62 melanoma): > 100 µM
- GI50 (COLO 205 colon): 36.1 µM
- TGI (COLO 205 colon): > 100 µM
- GI50 (MDA-MB-231 breast): 58.5 µM
- TGI (MDA-MB-231 breast): > 100 µM
- GI50 (SK-MEL-28 melanoma): > 100 µM
- TGI (SK-MEL-28 melanoma): > 100 µM
- GI50 (CCRF-CEM leukemia): 24.2 µM
- TGI (CCRF-CEM leukemia): 46 µM
- GI50 (SK-OV-3 ovarian): > 100 µM
- TGI (SK-OV-3 ovarian): > 100 µM
- GI50 (SF-295 CNS): 83.8 µM
- TGI (SF-295 CNS): > 100 µM
- GI50 (NCI-H460 lung): 75.5 µM
- TGI (NCI-H460 lung): > 100 µM
- GI50 (IGROV1 ovarian): 22.7 µM
- TGI (IGROV1 ovarian): 73.5 µM
- GI50 (MOLT-4 leukemia): 18.7 µM
- TGI (MOLT-4 leukemia): 46.5 µM
- GI50 (OVCAR-8 ovarian): > 100 µM
- TGI (OVCAR-8 ovarian): > 100 µM
- GI50 (K-562 leukemia): 22.2 µM
- TGI (K-562 leukemia): 62.2 µM
- GI50 (HS 578T breast): 32.8 µM
- TGI (HS 578T breast): > 100 µM
- GI50 (NCI-H226 lung): 86.7 µM
- TGI (NCI-H226 lung): > 100 µM
- GI50 (OVCAR-5 ovarian): > 100 µM
- TGI (OVCAR-5 ovarian): > 100 µM
- GI50 (786-0 renal): > 100 µM
- TGI (786-0 renal): > 100 µM
- GI50 (TK-10 renal): 19.6 µM
- TGI (TK-10 renal): 48.8 µM
- GI50 (UACC-257 melanoma): > 100 µM
- TGI (UACC-257 melanoma): > 100 µM
- GI50 (PC-3 prostate): 30.9 µM
- TGI (PC-3 prostate): > 100 µM
- GI50 (A498 renal): 65.9 µM
- TGI (A498 renal): > 100 µM
- GI50 (OVCAR-4 ovarian): 78.8 µM
- TGI (OVCAR-4 ovarian): > 100 µM
- GI50 (HOP-62 NSCLC): > 100 µM
- TGI (HOP-62 NSCLC): > 100 µM
- GI50 (A549 NSCLC): 61.3 µM
- TGI (A549 NSCLC): > 100 µM
- GI50 (KM12 colon): 41 µM
- TGI (KM12 colon): > 100 µM
- GI50 (CAKI-1 renal): 45.5 µM
- TGI (CAKI-1 renal): > 100 µM
- GI50 (SN12C renal): 77.9 µM
- TGI (SN12C renal): > 100 µM
- GI50 (HCC-2998 colon): 73 µM
- TGI (HCC-2998 colon): > 100 µM
- GI50 (SF-539 CNS): > 100 µM
- TGI (SF-539 CNS): > 100 µM
- GI50 (HCT-116 colon): 21.1 µM
- TGI (HCT-116 colon): 58 µM
- GI50 (NCI-H23 lung): 80.6 µM
- TGI (NCI-H23 lung): > 100 µM
- GI50 (HT29 colon): 53 µM
- TGI (HT29 colon): > 100 µM
- GI50 (MCF7 breast): 31.7 µM
- TGI (MCF7 breast): > 100 µM
- GI50 (SNB-75 CNS): > 100 µM
- TGI (SNB-75 CNS): > 100 µM
- GI50 (OVCAR-3 ovarian): 31.3 µM
- TGI (OVCAR-3 ovarian): 92.7 µM
